Results as given in patent US20070027175A1, “Antineoplastic activities of ellipticine and its derivatives” (priority 2005, published 2007).
“Also recorded” adds a separate entry of the source.

What was measured:
[1] = test system: 12 myeloma cell lines (Ark, BW288, CAG, Delta47, DF15, JJN3, kms11, L363, opm2, RPMI8226, U266 and XG1); test: Comparative study with existing anti-myeloma drugs (CellTiter-Glo); format: cell-based, human; design: time to inhibition of cell proliferation: dose or concentration left out as unconfirmed
Excerpt: The results obtained from these controls are pooled together in the figure (●). The dose of each compound was set […].
Comparative study of NSC 338258 with existing anti-myeloma drugs Myeloma cell lines were exposed to NSC 338258 and existing anti myeloma drugs, Adriamycin® (Doxorubicin Hydrochloride) and Etoposide (VP-16-213) in ninety six well culture plates. The concentration of each compound was set […]. […] The cell growth was near zero in the following days (day 4 onwards; FIG. 6). It was also observed that 12 myeloma cell lines (Ark, BW288, CAG, Delta47, DF15, JJN3, kms11, L363, opm2, RPMI8226, U266 and XG1) responded to the same dosage (0.2 μM) of NSC 338258, VP-16-213 and Adriamycin in 5 days.

[2] = test system: non myeloma cancer cell lines HEL, HL-60, k562, MEG01, THP1, Hela, G401, Du145, sw480, sw620, saoS2, MG63; test: Overall cell growth inhibition, non myeloma cancer cell lines (CellTiter-Glo); format: cell-based; design: dose or concentration left out as unconfirmed; conditions: 5 days
Procedure: Five non myeloma cancer cell lines, HEL (▮), HL-60 (▴), k562 (X), MEG01 ( ? ) and THP1 (▪) were exposed to NSC 388258 over a period of 5 days. The dose was set at 0.2 mM. […] The results obtained from these controls are pooled together in the figure (●).
Seven non myeloma cancer cell lines, Hela (▮), G401 (▴), Du145 (X), sw480, (*) sw620 (▪), SaoS2 (I) and MG63 (−) were exposed to NSC 388258 over a period of 5 days. The dose was set at 0.2 mM. […] The results obtained from these controls are pooled together in the figure (●).
To test the overall cell growth inhibition of NSC 338258, twelve non myeloma cancer cell lines, HEL, HL-60, k562, MEG01, THP1, Hela, G401, Du145, sw480, sw620, saoS2, and MG63, were exposed to the compound in 96 well cell culture plates for a period of five days.

U266 cells = format: cell-based, human; conditions: for disruption of mitochondria (MitoTracker Red CMXRos): 6 hours, EPED3 2 mM, Velcade 0.5 mM
Excerpt: FIGS. 15A-15C show fluorescent images of EPED3 endoplasmic distribution and induction of apoptosis, which was also detected by Western Blot. […] For analysis by fluorescence microscopy, nuclei were stained with DAPI (blue), mitochondria with MitoTracker Red CMXRos (red), and cytochrome c with FITC-conjugated secondary antibodies (green); EPED3 is excited by ultraviolet light (wavelength<500 nm) and was visualized as gold.
The appearance of large cytoplasmic vacuoles (arrows) and diminished mitochondria in cells treated with EPED3 indicate ongoing apoptosis. […] Cytochrome c disassociation with mitochondria also indicates initiation of the intrinsic apoptotic pathway. […] Protein extracts ([…]) were analyzed by Western blotting, using goat anti-human Caspase-3, -8, and -9 polyclonal antibodies. […] In contrast, both EPED3 and Velcade treatments initiated the intrinsic pathway, which releases cytochrome c to induce rapid cleavage of Caspase-9 into its activated form. The consequent Caspase-3 activation indicates activity of the intracellular proteolytic cascade. Abbreviations: C=Medium control, E=EPED3, V=Velcade.
Myeloma cells were co-cultured with human fetal bone mesenchymal cells in the TC inserts. The cells were treated with individual antimyeloma agents at desired concentrations. An aliquot containing 10^6 cells was transferred to 24-well plate and mixed with MitoTracker Red CMXRos (Invitrogen) at 50 nM final concentration. After a 15-minute incubation, cells were collected and washed with PBS and resuspended at 5×10^5 cells/ml for slide adhesion by the Cytospinning method. […]
Autofluorescence of EPED3 was used to visually examine its effects on myeloma cells. […] Cells that ingested EPED3 were, therefore, discernible by the characteristic golden light emitted under fluorescence microscopy. […]
To further investigate effects of EPED3 on mitochondrial integrity and cytochrome c, treated U266 cells were immunohistochemically analyzed.

[3] = test system: myeloma cell lines chronically exposed to Velcade; test: Myeloma cell lines with acquired Velcade tolerance; format: cell-based
[4] = test system: myeloma cell lines ARK, KMS11, RPMI 8226, and U266; test: In vitro screening of DTP compounds on myeloma cell lines (CellTiter-Glo); format: cell-based, human; design: effect on myeloma cell growth among tested ellipticine derivatives: dose or concentration left out as unconfirmed
Procedure: Eight myeloma cell lines were contacted with the antineoplastic agents to be tested in ninety six well culture plates. […]
Myeloma cell lines were maintained at >90% viability at 37° C. and 5% CO2. Cells were diluted to 20,000 cells/ml in fresh medium. A 50-μl aliquot of cell suspension was seeded in 96-well tissue culture plates to final cell counts of 1,000 cells/well. All compounds obtained from NCI's Developmental Therapeutics Program (DTP compounds) were dissolved in 100% dimethylsulfoxide (DMSO) (Sigma-Aldrich, St. Louis, Mo.) at 1 mg/ml and further diluted in fresh medium to 1 μg/ml. Each compound (50-μl aliquots) was distributed to a well containing 1,000 myeloma cells. Each plate included controls with addition of only medium or only DMSO (0.5% final concentration). All experiments were conducted in triplicate.
Using CellTiter-Glo Luminescent Assay kit (Promega, Madison, Wis.) according to manufacturer's instructions, cell viability was assayed every 24 hours after addition of DTP compound for 5 days. Briefly, the CellTiter-Glo substrate was dissolved in buffer, and 100 μl was added to each well. […] The statistic sampling distribution for each compound per cell line was based on sample of n=15 measurements.
Other ellipticine derivatives from the DTP (at 0.5 mM final concentration) were used to screen the same four myeloma cell lines.

Cc1c2ccncc2c(C)c2c1[nH]c1ccc(OCCN(C)C)cc12 [NSC 338258, ellipticine, 9-dimethyl amino-ethoxy-]
time to inhibition of cell proliferation [1]: ≤ 24 h
response of 12 myeloma cell lines ([1]; 0.2 μM, in 5 days): responded
activity against non-myeloma cell lines [2]: effective against non-myeloma cell lines
cell uptake and distribution (autofluorescence) (U266 cells): instantly permeated the cells and distributed throughout the cytosol
disruption of mitochondria (MitoTracker Red CMXRos) (U266 cells): Disruption of mitochondria
cross-tolerance of Velcade-tolerant cells ([3]; data not shown): such Velcade-tolerance did not apply
inhibition of cell viability in four myeloma cell lines ([4]; 0.5 mg/ml, every 24 hours over 5 days): most significantly inhibited cell viability; also recorded: significant anti-myeloma effect
effect on myeloma cell growth among tested ellipticine derivatives ([4]; four myeloma cell lines): best among the tested ellipticine derivatives
effective invitro dosage (cell growth inhibition) ([4]; myeloma cell lines): 0.2 µM

CC(C)C[C@H](NC(=O)[C@H](Cc1ccccc1)NC(=O)c1cnccn1)B(O)O [Velcade, bortezomib, reference compound]
disruption of mitochondria (MitoTracker Red CMXRos) (U266 cells): mitochondrial disruption was not seen
tolerance level after chronic exposure ([3]; in vitro chronic exposure to Velcade, several myeloma cell lines): > 5 nM
